Results as given in US6696461B2, “Tricyclic imidazopyridines” (Altana Pharma AG, priority 2000, dated 2004).

Tested on: not given
Assay: not given
Conditions: not given

Row | SMILES | melting point
1 | COCCO[C@H]1c2c(COC)cn3c(C)c(C)nc3c2N[C@H](c2ccccc2)[C@H]1O [Example 20, (7S,8R,9R)-8-Hydroxy-7-(2-methoxyethoxy)-6-methoxymethyl-2,3-dimethyl-9-phenyl-7,8,9,10-tetrahydroimidazo[1,2-h][1,7]naphthyridine] | 158 to 160 °C (dec.)
2 | CCO[C@H]1c2c(COC)cn3c(C)c(C)nc3c2N[C@H](c2ccccc2)[C@H]1O [Example 22, (7S,8R,9R)-8-Hydroxy-7-ethoxy-6-methoxymethyl-2,3-dimethyl-9-phenyl-7,8,9,10-tetrahydroimidazo[1,2-h][1,7]naphthyridine] | 163 to 164 °C (dec.)
3 | COCCO[C@@H]1c2c(COC)cn3c(C)c(C)nc3c2N[C@H](c2ccccc2)[C@H]1O [Example 19, (7R,8R,9R)-8-Hydroxy-7-(2-methoxyethoxy)-6-methoxymethyl-2,3-dimethyl-9-phenyl-7,8,9,10-tetrahydroimidazo[1,2-h][1,7]naphthyridine] | 158 to 160 °C
4 | CCO[C@@H]1c2c(COC)cn3c(C)c(C)nc3c2N[C@H](c2ccccc2)[C@H]1O [Example 21, (7R,8R,9R)-8-Hydroxy-7-ethoxy-6-methoxymethyl-2,3-dimethyl-9-phenyl-7,8,9,10-tetrahydroimidazo[1,2-h][1,7]naphthyridine] | 184 to 186 °C (dec.)
5 | COCc1cn2c(C)c(C)nc2c2c1[C@H](OC)[C@H](O)[C@@H](c1ccccc1)N2 [Example 17, (7S,8R,9R)-8-Hydroxy-7-methoxy-6-methoxymethyl-2,3-dimethyl-9-phenyl-7,8,9,10-tetrahydroimidazo[1,2-h][1,7]naphthyridine] | 126 to 129 °C (dec.)
6 | COCc1cn2c(C)c(C)nc2c2c1[C@H](O)[C@H](O)[C@@H](c1ccccc1)N2 [Example 15, (7S,8R,9R)-7,8-Dihydroxy-6-methoxymethyl-2,3-dimethyl-9-phenyl-7,8,9,10-tetrahydroimidazo[1,2-h][1,7]naphthyridine] | 182 to 183 °C (dec.)

Tested on: pentagastrin-stimulated acid secretion of the perfused rat stomach
Assay: Secretion-inhibiting action on the perfused rat stomach (pentagastrin-stimulated acid secretion, i.v. administration in vivo)
Conditions: anesthetized CD rat, dose 3 μmol/kg i.v.
Excerpt: Testing of the Secretion-inhibiting Action on the Perfused Rat Stomach
In Table A which follows, the influence of the compounds according to the invention on the pentagastrin-stimulated acid secretion of the perfused rat stomach after intravenous administration in vivo is shown.
The abdomen of anesthetized rats (CD rat, female, 200-250 g; 1.5 g/kg i.m. urethane) was opened after tracheotomy by a median upper abdominal incision and a PVC catheter was fixed transorally in the esophagus and another via the pylorus such that the ends of the tube just projected into the gastric lumen. The catheter leading from the pylorus led outward into the right abdominal wall through a side opening.
After thorough rinsing (about 50-100 ml), warm (37° C.) physiological NaCl solution was continuously passed through the stomach (0.5 ml/min, pH 6.8-6.9; Braun-Unita 1). The pH (pH meter 632, glass electrode EA 147; φ=5 mm, Metrohm) and, by titration with a freshly prepared 0.01N NaOH solution to pH 7 (Dosimat 665 Metrohm), the secreted HCl were determined in the effluent in each case collected at an interval of 15 minutes.
The gastric secretion was stimulated by continuous infusion of […] (=1.65 ml/h) of i.v. pentagastrin (left femoral vein) about 30 min after the end of the operation (i.e. after determination of 2 preliminary fractions). […]

Row | SMILES | Inhibition of acid secretion [%]
7 | COCc1cn2c(C)c(C)nc2c2c1[C@H](OC)[C@H](O)[C@@H](c1ccccc1)N2 [Example 17, (7S,8R,9R)-8-Hydroxy-7-methoxy-6-methoxymethyl-2,3-dimethyl-9-phenyl-7,8,9,10-tetrahydroimidazo[1,2-h][1,7]naphthyridine] | 100
